ChEMBL document CHEMBL1152620, “Carbonic anhydrase inhibitors. Diazenylbenzenesulfonamides are potent and selective inhibitors of the tumor-associated isozymes IX and XII over the cytosolic isoforms I and II” (Bioorg Med Chem, 2009)

Experiments:
Carbonic anhydrase 9 = Carbonic anhydrase 9 (Homo sapiens, UniProt Q16790); format: cell-based, Sf9
Description: Inhibition of human recombinant CA9 catalytic domain expressed in Sf9 cells by stopped flow CO2 hydration assay

[1] = Solubility in water; format: physicochemical; conditions: buffer
Carbonic anhydrase 12 = Carbonic anhydrase 12 (Homo sapiens, UniProt O43570); assay: Inhibition of human recombinant CA12 catalytic domain expressed in Sf9 cells by stopped flow CO2 hydration assay
Sequence of Carbonic anhydrase 12 (O43570 whole entry, the tested form may be a part): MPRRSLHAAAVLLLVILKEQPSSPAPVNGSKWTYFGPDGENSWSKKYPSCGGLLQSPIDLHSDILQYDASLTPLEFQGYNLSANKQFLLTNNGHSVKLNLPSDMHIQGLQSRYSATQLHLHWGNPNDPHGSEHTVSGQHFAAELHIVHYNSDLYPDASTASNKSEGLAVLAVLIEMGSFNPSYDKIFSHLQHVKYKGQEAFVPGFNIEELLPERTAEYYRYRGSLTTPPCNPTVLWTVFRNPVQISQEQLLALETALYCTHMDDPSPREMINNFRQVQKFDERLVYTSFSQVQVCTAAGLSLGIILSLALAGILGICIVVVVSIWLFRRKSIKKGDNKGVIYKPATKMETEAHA

Row | SMILES | Ki (Carbonic anhydrase 9) [nM] | solubility [1] | Ki (Carbonic anhydrase 12) [nM]
1 | Nc1ccc(/N=N/c2ccc(S(N)(=O)=O)cc2)cc1 | 6 | – | –
2 | NS(=O)(=O)c1ccc(/N=N/c2ccc(NCS(=O)(=O)[O-])cc2)cc1.[Na+] | 5.4 | Soluble | –
3 | CN(C)c1ccc(/N=N/c2ccc(S(N)(=O)=O)cc2)cc1 | – | – | 7.9
4 | NS(=O)(=O)c1ccc(/N=N/c2ccc(O)cc2)cc1 | 6.4 | – | 5
5 | CN(CS(=O)(=O)O)c1ccc(/N=N/c2cccc(S(N)(=O)=O)c2)cc1 | 63 | – | –
6 | CN(CS(=O)(=O)[O-])c1ccc(/N=N/c2ccc(S(N)(=O)=O)cc2)cc1.[Na+] | 3.5 | Soluble | –
7 | NS(=O)(=O)c1cccc(/N=N/c2ccc(NCS(=O)(=O)O)cc2)c1 | 57 | – | –
8 | Nc1ccc(/N=N/c2cccc(S(N)(=O)=O)c2)cc1 | 5.9 | – | –
9 | CNc1ccc(/N=N/c2ccc(S(N)(=O)=O)cc2)cc1 | 4.9 | – | 69.4
10 | NS(=O)(=O)c1cccc(/N=N/c2ccc(O)cc2)c1 | 6.1 | – | 7.3
11 | CN(C)c1ccc(/N=N/c2cccc(S(N)(=O)=O)c2)cc1 | 6.4 | – | –
12 | O=S(=O)(O)CNc1ccccc1 [SODIUM PHENYLAMINOMETHANESULFONATE] | 5100 | – | –
13 | CN(CS(=O)(=O)O)c1ccccc1 [SODIUM(METHYL(PHENYL)AMINO)METHANESULFONATE] | 5850 | – | –
